Test results from patent US9921406B2, “Targeted dual-axes confocal imaging apparatus with vertical scanning capabilities” (THE REGENTS OF THE UNIVERSITY OF MICHIGAN, priority 2009, dated 2018).
“Also recorded” adds a separate entry of the source.

Key:
CXCR7 = biological target: T1, CXCR7 (Homo sapiens, UniProt P25106); assay: CXCR7/β-arrestin 2 firefly luciferase complementation assay for CXCR7 activation; format: cell-based
T1 construct: expressed in transfected cells; host or cells: reporter cells stably expressing the CXCR7/β-arrestin 2 PCA
Source text: Binding of synthetic or natural ligands to 7-transmembrane receptors activates the receptor, resulting in receptor activation and recruitment of β-arrestin, a cytosolic adapter protein. The protein interaction between CXCR7 and β-arrestin 2 has been used to develop a protein fragment complementation assay for detecting activation of CXCR7. […] Ligand-dependent interaction of CXCR7 and β-arrestin 2 also brings together NLuc and CLuc fragments, which reconstitutes active firefly luciferase.
Ligands for CXCR7 activate the receptor, causing recruitment of β-arrestin. To determine to what extent the engineered knottin interacts with CXCR7, firefly luciferase complementation for CXCR7 activation was used as a reporter for binding of the peptide to the receptor. CXCR7/β-arrestin reporter cells were incubated with increasing concentrations of CXCR7-targeted knottin for 2 hours and then luciferase activity was quantified in living cells.

CXCR4 = biological target: T2, CXCR4 (Homo sapiens, UniProt P61073); assay: Luciferase complementation for recruitment of β-arrestin to CXCR4; format: cell-based
T2 construct: expressed in transfected cells

[1] = tested on: adenomas (dysplastic polyps) in the rectum; assay: In vivo fluorescence endoscopy of topically applied peptide in CPC;APC mouse model of colon cancer; conditions: FITC-labeled peptide 10 μM, 1 ml topical, ~10 minute dwell, PBS rinse
Source text: This small animal endoscope (Karl Storz Veterinary Endoscopy, Goleta, Calif.) consists of a 9.5 Fr (3 mm) diameter rigid Hopkins II 0 deg telescope with a 11.5 cm working length and a 3 Fr (1 mm) diameter instrument channel for performing tissue biopsy. Fluorescence excitation is produced with a 450 to 475 nm passband filter that can be manually switched into the optical path of a 175 W Nova Xenon light source, and is delivered to the endoscope via a 3 mm diameter fluid light cable with 250 cm length. Fluorescence images are collected with 510 nm barrier filter to block the excitation light, and are detected with a 3-chip color camera with an integrated parfocal zoom lens. Real time video can be recorded via firewire connected to a personal computer.
The rectum of the mouse was first cleaned of stool and debris by performing tap water lavage, and then the distal end of the small animal endoscope was lubricated and inserted into the rectum of the mouse. Once adenomas were identified on white light, shown in FIG. 25A, a 1 ml solution of FITC-labeled peptide “VRPMPLQ” at a concentration of 10 μM was applied through the instrument channel with a syringe, and allowed to dwell for ˜10 minute, followed by gentle rinsing with PBS. […] The rectum was then rinsed vigorously with PBS. Complete removal of the peptide from the rectal mucosa was observed on fluorescence. […]

colonic adenoma = conditions: topical, cited from earlier work

T1 sequence (P25106 whole entry, species assumed): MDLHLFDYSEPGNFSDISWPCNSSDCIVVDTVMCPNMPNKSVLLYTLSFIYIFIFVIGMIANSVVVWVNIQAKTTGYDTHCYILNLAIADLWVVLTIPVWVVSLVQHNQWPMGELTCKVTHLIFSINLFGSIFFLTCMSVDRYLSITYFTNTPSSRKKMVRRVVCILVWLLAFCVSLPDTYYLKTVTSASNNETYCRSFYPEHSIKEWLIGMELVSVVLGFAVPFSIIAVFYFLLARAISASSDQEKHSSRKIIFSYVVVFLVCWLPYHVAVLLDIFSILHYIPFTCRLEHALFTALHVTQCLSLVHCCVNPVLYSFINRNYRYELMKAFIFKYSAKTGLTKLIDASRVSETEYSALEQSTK
T1 sequence (P32121 whole entry partner, species assumed): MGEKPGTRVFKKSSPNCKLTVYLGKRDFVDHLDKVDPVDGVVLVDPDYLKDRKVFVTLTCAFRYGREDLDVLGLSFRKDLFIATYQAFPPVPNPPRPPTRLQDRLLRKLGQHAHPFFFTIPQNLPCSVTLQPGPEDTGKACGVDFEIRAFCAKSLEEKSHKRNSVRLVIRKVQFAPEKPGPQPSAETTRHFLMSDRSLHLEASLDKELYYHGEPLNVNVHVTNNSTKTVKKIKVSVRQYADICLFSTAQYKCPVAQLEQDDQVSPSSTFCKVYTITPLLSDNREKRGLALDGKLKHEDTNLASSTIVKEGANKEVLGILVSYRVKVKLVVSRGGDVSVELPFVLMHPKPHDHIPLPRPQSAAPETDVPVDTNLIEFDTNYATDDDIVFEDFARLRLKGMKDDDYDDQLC
T2 sequence (P61073 whole entry, species assumed): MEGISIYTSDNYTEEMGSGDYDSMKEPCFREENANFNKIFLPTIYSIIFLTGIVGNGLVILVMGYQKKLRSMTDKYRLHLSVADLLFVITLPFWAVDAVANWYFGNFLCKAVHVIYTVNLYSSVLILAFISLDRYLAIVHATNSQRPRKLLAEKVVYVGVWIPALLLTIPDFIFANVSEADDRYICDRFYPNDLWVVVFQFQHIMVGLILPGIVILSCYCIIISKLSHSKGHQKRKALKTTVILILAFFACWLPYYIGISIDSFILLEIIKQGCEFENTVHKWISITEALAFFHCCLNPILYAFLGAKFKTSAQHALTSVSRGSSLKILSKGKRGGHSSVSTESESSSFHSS

Substance | selectivity CXCR7 versus CXCR4 (CXCR7; from luciferase complementation for both receptors) | activation of CXCR7 (bioluminescence) (CXCR7; reporter cells, living cells, knottin incubated 2 hours with increasing concentrations) | activation of CXCR4 (recruitment of β-arrestin) (CXCR4) | peptide binding to adenomas (fluorescence image) [1] | peptide binding seen in fluorescence image, adenoma versus normal mucosa (colonic adenoma; 50 μm depth, FIG. 23B) | average contrast ratio (adenoma:normal fluorescence intensity) (colonic adenoma; imaged at 50 μm depth, n=10 adenomas and adjacent normal mucosa)
GGCKPVSLSYRAPARFCKQDSDCLAGCVCGPNGFCGSA [CXCR7-targeted knottin] | selectively interacts with CXCR7 and not CXCR4 | increased bioluminescence; also recorded: dose-dependent activation of CXCR7 | did not activate CXCR4 |  |  | 
QLMRPPV [FITC-labeled scrambled (control) peptide, reference compound] |  |  |  | significantly less fluorescence intensity; also recorded: reduced binding |  | 
VRPMPLQ [7mer peptide from phage display, conjugated to fluorescein using a hexanoic acid linker to the N-terminus] |  |  |  | preferential peptide binding to the adenomas; also recorded: affinity binding | significant peptide binding to colonocytes surrounding dysplastic crypts (adenoma) | 21±6
